Test results published in patent US7074742B2, “Pyridinyl amides and imides for use as fungicides” (E. I. du Pont de Nemours and Company, priority 2000, dated 2006).
Marks after values point to notes of the source that are not given here.

Assays:
Type in all cases: in vivo
[1] = test system: Pyricularia oryzae; details: preventive spray on rice seedlings; 100 = 100% disease control, 0 = no control; concentration not marked in table
[2] = test system: Phytophthora infestans; details: preventive spray on tomato seedlings; 100 = 100% disease control, 0 = no control; concentration not marked in table
[3] = test system: Plasmopara viticola; experiment: TEST G: curative spray on inoculated grape seedlings, grape downy mildew, disease rating; details: for curative utility: curative (post-infection) use, especially for grape downy mildew, statement in words; for Test G disease control rating (grape downy mildew, curative): curative spray on inoculated grape seedlings
[4] = test system: Plasmopara viticola; experiment: TEST E: preventive spray on grape seedlings, grape downy mildew, disease rating
[5] = test system: Erysiphe graminis f. sp. tritici; experiment: TEST A: preventive spray on wheat seedlings, wheat powdery mildew, disease rating; details: 100 = 100% disease control, 0 = no control relative to controls, concentration not marked in table
[6] = test system: Puccinia recondita; experiment: TEST B: preventive spray on wheat seedlings, wheat leaf rust, disease rating; details: 100 = 100% disease control, 0 = no control, concentration not marked in table
[7] = 100 = 100% disease control, 0 = no control, concentration not marked in table
[8] = concentration not marked in table

SMILES | Test C disease control rating (rice blast) [1] [%] | Test D disease control rating (potato and tomato late blight) [2] [%] | curative utility [3] | Test G disease control rating (grape downy mildew, curative) ([3]; 100 ppm) | Test E disease control rating (grape downy mildew) [4, 7] [%] | Test G disease control rating (grape downy mildew, curative) ([3]; 20 ppm) | Test E disease control rating (grape downy mildew) ([4]; 100 ppm) | Test A disease control rating (wheat powdery mildew) [5] [%] | Test B disease control rating (wheat leaf rust) [6] [%] | Test G disease control rating (grape downy mildew, curative) [3, 8] [%]
CC(NC(=O)c1c(Cl)ccnc1Cl)c1ncc(C(F)(F)F)cc1Cl (racemic) [Compound 30] | 0 | 100 | significant curative utility | 100* % | 100 | – | – | – | – | –
CC(NC(=O)c1c(Cl)ccnc1Cl)c1ncc(C(F)(F)F)cc1Cl (single isomer, unassigned) [Cmpd 38] | – | – | – | – | – | 0** % | 69* % | – | – | –
O=C(NCc1ncc(C(F)(F)F)cc1Cl)c1cnc(Cl)c(Cl)c1 [Cmpd 7] | – | – | – | – | – | – | – | 0 | 0 | –
Nc1ncccc1C(=O)NCc1ncc(C(F)(F)F)cc1Cl [Cmpd 9] | 0 | 7 | – | – | 0 | – | – | 0 | 28 | –
O=C(NCc1ncc(C(F)(F)F)cc1Cl)c1cncc(Br)c1 [Cmpd 10] | 74 | 16 | – | – | 0 | – | – | 0 | 9 | –
O=C(NCc1ncc(C(F)(F)F)cc1Cl)c1cccnc1O [Cmpd 11] | 0 | 7 | – | – | 8 | – | – | 0 | 9 | –
COc1ncccc1C(=O)NCc1ncc(C(F)(F)F)cc1Cl [Cmpd 12] | 0 | 7 | – | – | 24 | – | – | 0 | 19 | –
CCOc1ncccc1C(=O)NCc1ncc(C(F)(F)F)cc1Cl [Cmpd 13] | 0 | 3 | – | – | 23 | – | – | 0 | 9 | –
Cc1ccc(C(=O)NCc2ncc(C(F)(F)F)cc2Cl)c(Cl)n1 [Cmpd 14] | 90 | 100 | – | – | 98 | – | – | 0 | 19 | –
O=C(NCc1ncc(C(F)(F)F)cc1Cl)c1cccnc1Oc1ccccc1 [Cmpd 15] | 30 | 7 | – | – | 8 | – | – | 0 | 38 | –
O=C(NCc1ncc(C(F)(F)F)cc1Cl)c1cccnc1Sc1ccccc1 [Cmpd 16] | 100 | 34 | – | – | 8 | – | – | 0 | 9 | –
O=C(NCc1ncc(C(F)(F)F)cc1Cl)c1cncc(C#Cc2ccccc2)c1 [Cmpd 17] | 0 | 25 | – | – | 0 | – | – | 13 | 0 | –
O=C(NCc1ncc(C(F)(F)F)cc1Cl)c1ccc(C(F)(F)F)nc1Br [Cmpd 18] | 80 | 32 | – | – | 0 | – | – | 0 | 9 | –
Cc1ccc(C(=O)NCc2ncc(C(F)(F)F)cc2Cl)c(O)n1 [Cmpd 19] | 0 | 7 | – | – | 8 | – | – | 0 | 9 | –
Cc1nc(C(F)(F)F)ccc1C(=O)NCc1ncc(C(F)(F)F)cc1Cl [Cmpd 20] | 87 | 25 | – | – | 8 | – | – | 0 | 28 | –
Cc1nc(C(F)(F)C(F)(F)F)ccc1C(=O)NCc1ncc(C(F)(F)F)cc1Cl [Cmpd 21] | 88 | 16 | – | – | 8 | – | – | 69 | 68 | –

SMILES | Test C disease control rating (rice blast) [1] [%] | Test D disease control rating (potato and tomato late blight) [2] [%] | curative utility [3] | Test G disease control rating (grape downy mildew, curative) ([3]; 100 ppm) | Test E disease control rating (grape downy mildew) [4, 7] [%] | Test G disease control rating (grape downy mildew, curative) ([3]; 20 ppm) | Test E disease control rating (grape downy mildew) ([4]; 100 ppm) | Test A disease control rating (wheat powdery mildew) [5] [%] | Test B disease control rating (wheat leaf rust) [6] [%] | Test G disease control rating (grape downy mildew, curative) [3, 8] [%]
COc1nc(C(F)(F)F)ccc1C(=O)NCc1ncc(C(F)(F)F)cc1Cl [Cmpd 22] | 0 | 7 | – | – | 0 | – | – | 0 | 0 | –
COCc1nc(C(F)(F)F)ccc1C(=O)NCc1ncc(C(F)(F)F)cc1Cl [Cmpd 23] | 7 | 32 | – | – | 8 | – | – | 72 | 9 | –
O=C(NCc1ncc(C(F)(F)F)cc1Cl)c1ccc(C(F)(F)F)nc1-c1ccccc1 [Cmpd 24] | 7 | 25 | – | – | 8 | – | – | 0 | 0 | –
Cc1nc(Cl)ccc1C(=O)NCc1ncc(C(F)(F)F)cc1Cl [Cmpd 25] | 13 | 79 | – | – | 16 | – | – | 0 | 9 | –
O=C(NCc1ncc(C(F)(F)F)cc1Cl)c1ccc(C(F)(F)F)nc1 [Cmpd 26] | 0 | 25 | – | – | 0 | – | – | 0 | 32 | –
O=C(NCc1ncc(C(F)(F)F)cc1Cl)c1cccnc1Nc1cccc(C(F)(F)F)c1 [Cmpd 27] | 0 | 32 | – | – | 16 | – | – | 0 | 0 | –
Cc1ncccc1C(=O)NCc1ccc(Cl)nc1 [Cmpd 32] | 0 | 32 | – | – | – | – | – | 0 | 0 | –
Cc1ncccc1C(=O)NCc1ccc(Oc2cccc(C(F)(F)F)c2)nc1 [Cmpd 33] | – | 71 | – | – | – | – | – | 91 | – | –
COc1cc(C(=O)NCc2ncc(C(F)(F)F)cc2Cl)cc(Cl)n1 [Cmpd 34] | – | 31 | – | – | – | – | – | 0 | 44 | –
Cc1cnc(C(=O)NCc2ncc(C(F)(F)F)cc2Cl)c(Cl)c1 [Compound 2] | – | 100 | significant curative utility | – | – | – | – | 0 | – | 99
O=C(NCc1ncc(C(F)(F)F)cc1Cl)c1cccnc1Cl [Compound 5] | – | – | significant curative utility | – | 98 | – | – | – | 19 | 99
Cc1cc(Cl)c(C(=O)NCc2ncc(C(F)(F)F)cc2Cl)c(Cl)n1 [Compound 8, 2,4-Dichloro-N-[[3-chloro-5-(trifluoromethyl)-2-pyridinyl]methyl]-6-methyl-3-pyridinecarboxamide] | – | 100 | significant curative utility | – | 100 | – | – | 0 | 8 | 96
Cc1cnc(Cl)c(C(=O)NCc2ncc(C(F)(F)F)cc2Cl)c1Cl [Compound 29] | 0 | 100 | significant curative utility | 100* % | 100 | – | – | – | – | –
C[C@@H](NC(=O)c1c(Cl)ccnc1Cl)c1ncc(C(F)(F)F)cc1Cl [Compound 31, 2,4-dichloro-N-[(1R)-1-[3-chloro-5-(trifluoromethyl)-2-pyridinyl]ethyl]-3-pyridinecarboxamide] | 0 | 100 | significant curative utility | – | 100 | 100** % | – | – | – | –
O=C(NCc1ncc(C(F)(F)F)cc1Cl)c1c(Cl)cncc1Cl [Compound 35] | – | 100 | significant curative utility | 100* % | 100 | – | – | 0 | 30 | –
